# Source: US20140220081A1, “USE OF A GALACTOSE-DERIVED C-GLYCOSIDE COMPOUND AS AN AGENT FOR ACTIVATING AND REGULATING CUTANEOUS IMMUNITY” (L'OREAL, priority 2006, published 2014)
# Test system: human peripheral blood cells
# Test: Immunostimulant activity: human lymphocyte proliferation revealed by BrdU labelling
# Type: cell-based
# Settings: for % stimulation relative to the control: 3 days of culture, BrdU labelling
# Protocol: The immunostimulant activity is tested in the following way: human peripheral blood cells are cultured in the presence of an RPMI-type culture medium supplemented with L-glutamine (2 mM), penicillin/streptomycin (50 μg/50 IU/ml) and foetal calf serum (10%). The C-glycoside derivatives are added at various concentrations (10 to 0.05 mM), as is phyto-haemagglutinin (PHA at 5 […]), a positive control for lymphocyte proliferation.
smiles,measurement,setting,value
"CC(=O)C[C@@H]1O[C@H](CO)[C@H](O)[C@H](O)[C@H]1O [Compound 1, 1-(C-β-galactopyranosyl)propan-2-one]",% stimulation relative to the control,0.05 mM,91%
same,% stimulation relative to the control,0.1 mM,89%
same,% stimulation relative to the control,0.5 mM,130%
same,% stimulation relative to the control,1 mM,138%
same,% stimulation relative to the control,5 mM,261%
same,% stimulation relative to the control,10 mM,271%
same,human lymphocyte proliferation (result in words),all the concentrations tested (10 to 0.05 mM),tendency to stimulate human lymphocyte proliferation at all the concentrations tested
